Measured values: patent US9717748B2, “Compositions and methods for treating an infection” (CMPD LICENSING, LLC, priority 2015, dated 2017)

What was measured:
Acinetobacter baumannii = experiment: Expected efficacy of antibiotic agents; conditions: Gram: neg
Providencia rettgeri = experiment: Expected efficacy of antibiotic agents; conditions: Gram: neg
Citrobacter freundii = experiment: Expected efficacy of antibiotic agents; conditions: Gram: neg
Enterobacter sakazakii = experiment: Expected efficacy of antibiotic agents; conditions: Gram: neg
Shigella dysenteriae = experiment: Expected efficacy of antibiotic agents; conditions: Gram: neg
Haemophilus ducreyi = experiment: Expected efficacy of antibiotic agents; conditions: Gram: neg
Rickettsiae = conditions: Gram: neg
Francisella tularensis = conditions: Gram: neg
Proteus vulgaris = experiment: Expected efficacy of antibiotic agents; conditions: Gram: neg
[1] = tested on: Klebsiella (Calymmato-bacterium) granulomatis; experiment: Expected efficacy of antibiotic agents; conditions: Gram: neg
Shigella sonnei = experiment: Expected efficacy of antibiotic agents; conditions: Gram: neg
Salmonella typhi = experiment: Expected efficacy of antibiotic agents; conditions: Gram: neg
Enterobacter cloacae = experiment: Expected efficacy of antibiotic agents; conditions: Gram: neg
[2] = tested on: Corynebacterium urealyticum; experiment: Expected efficacy of antibiotic agents; conditions: Gram: pos
Klebsiella oxytoca = experiment: Expected efficacy of antibiotic agents; conditions: Gram: neg
Moraxella catarrhalis = experiment: Expected efficacy of antibiotic agents; conditions: Gram: neg
Morganella morganii = experiment: Expected efficacy of antibiotic agents; conditions: Gram: neg
Escherichia coli = experiment: Expected efficacy of antibiotic agents; conditions: Gram: neg
Haemophilus influenzae = experiment: Expected efficacy of antibiotic agents; conditions: Gram: neg
Legionella pneumophila = conditions: Gram: neg
Vibrio cholerae = experiment: Expected efficacy of antibiotic agents; conditions: Gram: neg
Clostridium perfringens = conditions: Gram: anaer
[3] = tested on: Acinetobacter calcoaceticus; experiment: Expected efficacy of antibiotic agents; conditions: Gram: neg
Yersinia pestis = conditions: Gram: neg
Acinetobacter lwoffii = experiment: Expected efficacy of antibiotic agents; conditions: Gram: neg
Enterobacter aerogenes = experiment: Expected efficacy of antibiotic agents; conditions: Gram: neg
Brucella species = conditions: Gram: neg
Shigella flexneri = experiment: Expected efficacy of antibiotic agents; conditions: Gram: neg
Campylobacter jejuni = experiment: Expected efficacy of antibiotic agents; conditions: Gram: neg
Serratia marcescens = experiment: Expected efficacy of antibiotic agents; conditions: Gram: neg
Bartonella bacilliformis = experiment: Expected efficacy of antibiotic agents; conditions: Gram: neg
Pseudomonas aeruginosa = experiment: Expected efficacy of antibiotic agents; conditions: Gram: neg
Bordetella pertussis = experiment: Expected efficacy of antibiotic agents; conditions: Gram: neg
Citrobacter diversus = experiment: Expected efficacy of antibiotic agents; conditions: Gram: neg
Shigella boydii = experiment: Expected efficacy of antibiotic agents; conditions: Gram: neg
Neisseria meningitidis = experiment: Expected efficacy of antibiotic agents; conditions: Gram: neg
Klebsiella pneumoniae = experiment: Expected efficacy of antibiotic agents; conditions: Gram: neg
Proteus mirabilis = experiment: Expected efficacy of antibiotic agents; conditions: Gram: neg
Pseudomonas fluorescens = experiment: Expected efficacy of antibiotic agents; conditions: Gram: neg
Corynebacterium jeikeium = experiment: Expected efficacy of antibiotic agents; conditions: Gram: pos
Providencia stuartii = experiment: Expected efficacy of antibiotic agents; conditions: Gram: neg
Neisseria gonorrhoeae = experiment: Expected efficacy of antibiotic agents; conditions: Gram: neg

C/C(=C\C(=O)OCCCCCCCCC(=O)O)C[C@@H]1OC[C@H](C[C@@H]2O[C@H]2[C@@H](C)[C@H](C)O)[C@@H](O)[C@H]1O [Bactroban]
no: Expected efficacy against Acinetobacter baumannii (Acinetobacter baumannii) | Expected efficacy against Providencia rettgeri (Providencia rettgeri) | Expected efficacy against Citrobacter freundii (Citrobacter freundii) | Expected efficacy against Enterobacter sakazakii (Enterobacter sakazakii) | Expected efficacy against Shigella dysenteriae (Shigella dysenteriae) | Expected efficacy against Haemophilus ducreyi (Haemophilus ducreyi) | Expected efficacy against Rickettsiae (Rickettsiae) | Expected efficacy against Francisella tularensis (Francisella tularensis) | Expected efficacy against Proteus vulgaris (Proteus vulgaris) | Expected efficacy against Klebsiella (Calymmato-bacterium) granulomatis [1] | Expected efficacy against Shigella sonnei (Shigella sonnei) | Expected efficacy against Salmonella typhi (Salmonella typhi) | Expected efficacy against Enterobacter cloacae (Enterobacter cloacae) | Expected efficacy against Corynebacterium urealyticum [2] | Expected efficacy against Klebsiella oxytoca (Klebsiella oxytoca) | Expected efficacy against Moraxella catarrhalis (Moraxella catarrhalis) | Expected efficacy against Morganella morganii (Morganella morganii) | Expected efficacy against Escherichia coli (Escherichia coli) | Expected efficacy against Haemophilus influenzae (Haemophilus influenzae) | Expected efficacy against Legionella pneumophila (Legionella pneumophila) | Expected efficacy against Vibrio cholerae (Vibrio cholerae) | Expected efficacy against Clostridium perfringens (Clostridium perfringens) | Expected efficacy against Acinetobacter calcoaceticus [3] | Expected efficacy against Yersinia pestis (Yersinia pestis) | Expected efficacy against Acinetobacter lwoffii (Acinetobacter lwoffii) | Expected efficacy against Enterobacter aerogenes (Enterobacter aerogenes) | Expected efficacy against Brucella species (Brucella species) | Expected efficacy against Shigella flexneri (Shigella flexneri) | Expected efficacy against Campylobacter jejuni (Campylobacter jejuni) | Expected efficacy against Serratia marcescens (Serratia marcescens) | Expected efficacy against Bartonella bacilliformis (Bartonella bacilliformis) | Expected efficacy against Pseudomonas aeruginosa (Pseudomonas aeruginosa) | Expected efficacy against Bordetella pertussis (Bordetella pertussis) | Expected efficacy against Citrobacter diversus (Citrobacter diversus) | Expected efficacy against Shigella boydii (Shigella boydii) | Expected efficacy against Neisseria meningitidis (Neisseria meningitidis) | Expected efficacy against Klebsiella pneumoniae (Klebsiella pneumoniae) | Expected efficacy against Proteus mirabilis (Proteus mirabilis) | Expected efficacy against Pseudomonas fluorescens (Pseudomonas fluorescens) | Expected efficacy against Corynebacterium jeikeium (Corynebacterium jeikeium) | Expected efficacy against Providencia stuartii (Providencia stuartii) | Expected efficacy against Neisseria gonorrhoeae (Neisseria gonorrhoeae)
